In brackets after ≈: the same amount, converted by molar mass. Structures can show the parent of a compound that is named as a salt. Peptide text beside a SMILES is read from it.
Tests used:
[1] = pKa, pI and % salt of peptidic buffers; assay type: physicochemical
[2] = Conductivities and solubilities of selected multipeptides at their pI; assay type: physicochemical; conditions: for pI: Table 1; for Solubility: at pI
Text: Table 1 lists conductivities and solubilities of selected multipeptides useful in the present invention, at their pI. The pH buffering capacity of the peptidic buffers of the present invention can be explained by using Gly-His at pH 7.5 as an example (the pI of Gly-His is 7.55). At this pH, the net charge of the molecule is essentially zero. At the pI, three species coexist. The bulk of the molecule (70%) consists of the neutral species that bears two internal charges, one positive and one negative resulting in a net charge of zero. […] Although there are small percentages of species presenting a net positive or negative charge in solution, there is minimal ionic transport of these charged species due to charge equilibrium between the three species (i.e., a positive charge migrating in the electric field will revert almost instantly to its neutral form and lose momentum or to its negative form and migrate backward). Thus, there is little if any ionic transport of the charged peptides into the systemic circulation of the patient. Due to the same principle of charge equilibrium, any depletion of the charged molecules will be compensated immediately by dissociation of the neutral form to its charged species thereby providing a reservoir insuring long term pH stability. In addition, if loss of the molecule occurs by electroosmosis of the neutral species, this will not result in any pH changes.

[3] = cited from earlier work

SMILES | pka A (acidic pKa) ([1]; Table 2, first acidic pKa) | pka B (basic pKa) ([1]; Table 2, first basic pKa) | pka B (basic pKa) ([1]; Table 2, second basic pKa) | pI [2] | Solubility [2] | pka A (acidic pKa) ([1]; Table 2, second acidic pKa) | other results
CO/N=C(\C(=O)N[C@@H]1C(=O)N2C(C(=O)O)=C(CSc3nc(=O)c(=O)[nH]n3C)CS[C@H]12)c1csc(N)n1 [ceftriaxone] |  |  |  |  |  |  | pKa (amine) ([3]; amine): 3.2; pKa (carboxylic) ([3]; carboxylic): 3; pKa (enolic OH) ([3]; enolic OH): 4.1
CO/N=C(\C(=O)N[C@@H]1C(=O)N2C(C(=O)O)=C(CSc3nc(C)c(CC(=O)O)s3)CS[C@H]12)c1csc(N)n1 [Cefodizime disodium salt] |  |  |  |  |  |  | pKa (first value) ([3]; first listed): 2.85; pKa (second value) ([3]; second listed): 3.37; pKa (third value) ([3]; third listed): 4.18
NCCCC[C@H](NC(=O)[C@@H](N)CCC(=O)O)C(=O)O [Glu-Lys] (H-Glu-Lys-OH; N-terminus and C-terminus assumed) | 2.85 | 7.94 | 11.07 | 6.00 | 1000 mM (≈ 275 mg/mL) | 4.01 | 
NCC(=O)N[C@@H](Cc1c[nH]cn1)C(=O)O [Gly-His] (H-Gly-His-OH; N-terminus and C-terminus assumed) | 2.42 | 6.71 | 8.39 | 7.55 | 1000 mM (≈ 212 mg/mL) |  | 
C[C@H](NC(=O)[C@@H](N)Cc1c[nH]cn1)C(=O)O [His-Ala] (H-His-Ala-OH; N-terminus and C-terminus assumed) | 2.48 | 6.10 | 7.80 | 6.95 | 500 mM (≈ 113 mg/mL) |  | 
NCC(=O)N[C@@H](CC(=O)O)C(=O)O [Gly-Asp] (H-Gly-Asp-OH; N-terminus and C-terminus assumed) | 2.81 | 8.60 |  |  |  | 4.45 | 
NCCCC[C@H](N)C(=O)N[C@@H](CCC(=O)O)C(=O)O [Lys-Glu] (H-Lys-Glu-OH; N-terminus and C-terminus assumed) | 2.74 | 7.92 | 11.12 | 6.06 | 500 mM (≈ 138 mg/mL) | 4.18 | 
NCCCC[C@H](N)C(=O)N[C@@H](CC(=O)O)C(=O)O [Lys-Asp] (H-Lys-Asp-OH; N-terminus and C-terminus assumed) | 2.64 | 8.05 | 11.20 | 6.08 | 1000 mM (≈ 261 mg/mL) | 4.10 | 
N=C(N)NCCC[C@H](N)C(=O)N[C@@H](CC(=O)O)C(=O)O [Arg-Asp] (H-Arg-Asp-OH; N-terminus and C-terminus assumed) | 2.64 | 8.05 | 12.50 |  |  | 4.10 | 
Cn1cncc1C[C@H](NC(=O)CCN)C(=O)O [Anserine] | 2.64 | 7.04 | 9.49 |  |  |  | 
NCCC(=O)N[C@@H](Cc1cnc[nH]1)C(=O)O [Carnosine] | 2.64 | 6.83 | 9.51 |  |  |  | pI ([1]; Table 2): 8.17; % salt ([1]; fraction ionized with net charge in aqueous solution at pH equal to the pI): 8%

Second part, led by results:

pka A (acidic pKa) ([1]; Table 2, first acidic pKa) | pka B (basic pKa) ([1]; Table 2, first basic pKa) | pka B (basic pKa) ([1]; Table 2, second basic pKa) | pI [2] | Solubility [2] | pka A (acidic pKa) ([1]; Table 2, second acidic pKa) | SMILES | other results
3.09 | 6.83 | 7.94 | 7.38 | 200 mM (≈ 50.9 mg/mL) |  | CC(C)[C@H](N)C(=O)N[C@@H](Cc1c[nH]cn1)C(=O)O [Val-His] (H-Val-His-OH; N-terminus and C-terminus assumed) | 
2.30 | 6.32 | 8.07 | 5.20 | 400 mM (≈ 114 mg/mL) | 4.19 | N[C@@H](Cc1c[nH]cn1)C(=O)N[C@@H](CCC(=O)O)C(=O)O [His-Glu] (H-His-Glu-OH; N-terminus and C-terminus assumed) | 
3.05 | 6.10 | 7.80 |  |  |  | NCC(O)CC[C@H](NC(=O)[C@@H](N)Cc1c[nH]cn1)C(=O)O (stereo partly drawn) [His-Hydroxylysine] | pka B (basic pKa) ([1]; Table 2, third basic pKa): 9.70
2.28 | 6.45 | 8.19 | 5.22 | 50 mM (≈ 13.5 mg/mL) | 3.99 | N[C@@H](Cc1c[nH]cn1)C(=O)N[C@@H](CC(=O)O)C(=O)O [His-Asp] (H-His-Asp-OH; N-terminus and C-terminus assumed) | 
2.42 | 6.71 | 9.10 |  |  |  | O=C(O)[C@H](Cc1c[nH]cn1)NC(=O)[C@@H]1CCCN1 [Pro-His] | 
2.41 | 5.90 | 7.91 | 6.90 | 1000 mM (≈ 212 mg/mL) |  | N[C@@H](Cc1c[nH]cn1)C(=O)NCC(=O)O [His-Gly] (H-His-Gly-OH; N-terminus and C-terminus assumed) | 
2.42 | 6.71 | 8.25 |  |  |  | CC(C)C[C@H](N)C(=O)N[C@@H](Cc1c[nH]cn1)C(=O)O [Leu-His] (H-Leu-His-OH; N-terminus and C-terminus assumed) | 

— patent publication US20050142531A1, “Peptidically buffered formulations for electrotransport applications and methods of making” (priority 2003, published 2005)
